15 compounds from patent US20250302815A1, “PROTEIN TYROSINE PHOSPHATASE TARGETING LIGANDS” (CALICO LIFE SCIENCES LLC, priority 2021, published 2025) can be followed below.

In assay [1] the target is T1, PTPN2 (HiBIT-PTPN2 in 293T.109 cells) (Homo sapiens, UniProt P17706).
T1 construct: expressed in transfected cells; host or cells: 293T.109 (293T WT from ATCC)
T1 sequence (P17706 1-415): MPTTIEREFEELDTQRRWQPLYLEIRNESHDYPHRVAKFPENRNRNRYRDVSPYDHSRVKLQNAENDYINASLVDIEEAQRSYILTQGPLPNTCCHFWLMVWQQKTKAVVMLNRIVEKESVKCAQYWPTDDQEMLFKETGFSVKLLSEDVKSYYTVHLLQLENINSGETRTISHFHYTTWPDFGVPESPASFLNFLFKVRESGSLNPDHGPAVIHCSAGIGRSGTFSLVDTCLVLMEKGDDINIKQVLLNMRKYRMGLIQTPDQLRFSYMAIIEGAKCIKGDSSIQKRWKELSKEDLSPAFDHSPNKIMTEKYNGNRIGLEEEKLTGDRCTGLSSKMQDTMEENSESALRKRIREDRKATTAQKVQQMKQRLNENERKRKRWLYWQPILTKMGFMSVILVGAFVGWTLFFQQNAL
Nature of the assay: HiBiT Degradation 293T.109 PTPN2 (Nano-Glo HiBiT Lytic Assay). The class given is cell-based. The settings on record: 24.0 hours. In short, it runs like this:
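Degradation read-out: lytic HiBiT luminescence after 24 h treatment (37 °C, 5% CO2) of 5000 293T cells per well expressing HiBiT-fused PTPN2 from an N-terminal tag. Dosing was 11 points, half-log steps down from 10 μM, in duplicate; vehicle-treated and no-reagent wells served as controls.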

Assay [2] deals with T2, PTPN2 (B16F10.4 cells) (Mus musculus, UniProt Q06180).
T2 construct: HiBiT; host or cells: B16F10.4
T2 sequence (Q06180 1-406): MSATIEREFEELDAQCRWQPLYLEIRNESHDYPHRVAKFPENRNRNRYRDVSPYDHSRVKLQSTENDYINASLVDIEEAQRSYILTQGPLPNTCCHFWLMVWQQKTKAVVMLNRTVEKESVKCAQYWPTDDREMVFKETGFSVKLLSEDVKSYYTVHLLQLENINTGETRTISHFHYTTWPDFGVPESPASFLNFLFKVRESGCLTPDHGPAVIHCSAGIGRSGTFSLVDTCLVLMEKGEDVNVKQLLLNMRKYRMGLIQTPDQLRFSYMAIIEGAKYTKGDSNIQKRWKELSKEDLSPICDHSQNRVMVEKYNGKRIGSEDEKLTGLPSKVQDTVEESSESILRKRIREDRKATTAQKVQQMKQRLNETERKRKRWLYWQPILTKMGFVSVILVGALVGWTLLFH
As to the kind of experiment: HiBiT Degradation B16F10.4 PTPN2. The class given is cell-based. The following applies: 24.0 hours.

For orientation: DC50 means the concentration giving 50% degradation. A lower DC50 goes with a more potent degrader.

Where “and” joins values, the source holds several entries; their conditions need not be identical. Identical values can stand only once. Some results are limits rather than exact numbers.

Turning to `O=C(O)COc1c(C(=O)O)sc(-c2cccc(NC3CCN(S(=O)(=O)Cc4cccc(NC(=O)CCCCCCNC(=O)CNc5cccc6c5C(=O)N(C5CCC(=O)NC5=O)C6)c4)CC3)c2)c1Cl` (stereo not drawn) [Example 30, 3-(carboxymethoxy)-4-chloro-5-[3-[[1-[[3-[7-[[2-[[2-(2,6-dioxo-3-piperidyl)-3-oxo-isoindolin-4-yl]amino]acetyl]amino]heptanoylamino]phenyl]methylsulfonyl]-4-piperidyl]amino]phenyl]thiophene-2-carboxylic acid], the results for the DC50 in assay [1] and in assay [2] were 200 to 1000 nM and at least 1000 nM, respectively.

With `CC1(C)C[C@@H](Nc2cccc(-c3sc(C(=O)O)c(OCC(=O)O)c3Cl)c2)CCN1S(=O)(=O)Cc1ccc(F)c(NC(=O)[C@H]2[C@@H]3CN(C(=O)CNc4cccc5c4CN(C4CCC(=O)NC4=O)C5=O)C[C@@H]32)c1` (stereo partly drawn) [Example 110, 3-(carboxymethoxy)-4-chloro-5-(3-(((4S)-1-((3-((1R,5S,6r)-3-((2-(2,6-dioxopiperidin-3-yl)-1-oxoisoindolin-4-yl)glycyl)-3-azabicyclo[3.1.0]hexane-6-carboxamido)-4-fluorobenzyl)sulfonyl)-2,2-dimethylpiperidin-4-yl)amino)phenyl)thiophene-2-carboxylic acid], the 50% degradation concentration (DC50) in assay [1] lay in the range of 50 to 200 nM; in assay [2], 200 to 1000 nM.

`O=C(O)COc1c(C(=O)O)sc(-c2cccc(NC3CCN(S(=O)(=O)Cc4cccc(NC(=O)N5CCC(c6ccc7c8c(cccc68)C(=O)N7C6CCC(=O)NC6=O)CC5)c4)CC3)c2)c1Cl` (stereo not drawn) [Example 173, 3-(carboxymethoxy)-4-chloro-5-[3-[[1-[[3-[[4-[1-(2,6-dioxo-3-piperidyl)-2-oxo-benzo[cd]indol-6-yl]piperidine-1-carbonyl]amino]phenyl]methylsulfonyl]-4-piperidyl]amino]phenyl]thiophene-2-carboxylic acid]: the DC50 in assay [1] is 50 to 200 nM; in assay [2] it was under 50 nM.

Consider `Cn1c(=O)n(C2CCC(=O)NC2=O)c2ccc(C3CCN(C(=O)Nc4cccc(CS(=O)(=O)N5CC[C@H](Nc6cccc(-c7sc(C(=O)O)c(OCC(=O)O)c7Cl)c6F)CC5(C)C)c4)CC3)cc21` (stereo partly drawn) [Example 134, 3-(carboxymethoxy)-4-chloro-5-[3-[[(4S)-1-[[3-[[4-[1-(2,6-dioxo-3-piperidyl)-3-methyl-2-oxo-benzimidazol-S-yl]piperidine-1-carbonyl]amino]phenyl]methylsulfonyl]-2,2-dimethyl-4-piperidyl]amino]-2-fluoro-phenyl]thiophene-2-carboxylic acid], for which the DC50 in assay [1] and in assay [2] was under 50 nM in each case.

Take `Cn1c(=O)n(C2CCC(=O)NC2=O)c2ccc(C3CCN(C(=O)Nc4cccc(CS(=O)(=O)N5CC[C@@H](Nc6cc(-c7sc(C(=O)O)c(OCC(=O)O)c7Cl)ccc6F)CC5(C)C)c4)CC3)cc21` (stereo partly drawn) [Example 133]: the DC50 was 200 to 1000 nM in assay [1] and 50 to 200 nM in assay [2].

Regarding `CC(C)n1c(=O)n(C2CCC(=O)NC2=O)c2ccc(C3CCN(C(=O)Nc4cccc(CS(=O)(=O)N5CC[C@H](Nc6cccc(-c7sc(C(=O)O)c(OCC(=O)O)c7Cl)c6)CC5(C)C)c4)CC3)cc21` (stereo partly drawn) [Example 137], the DC50 in assay [1] and in assay [2] was 50 to 200 nM throughout.

Consider `CC1Cc2cc(C3CCN(C(=O)Nc4cccc(CS(=O)(=O)N5CC[C@H](Nc6cccc(-c7sc(C(=O)O)c(OCC(=O)O)c7Cl)c6)CC5(C)C)c4)CC3)ccc2N1C1CCC(=O)NC1=O` (stereo partly drawn) [Example 95, 3-(carboxymethoxy)-4-chloro-5-[3-[[(4S)-1-[[3-[[4-[1-(2,6-dioxo-3-piperidyl)-2-methyl-indolin-5-yl]piperidine-1-carbonyl]amino]phenyl]methylsulfonyl]-2,2-dimethyl-4-piperidyl]amino]phenyl]thiophene-2-carboxylic acid], for which the DC50 in assay [1] and in assay [2] was 200 to 1000 nM each time.

With `CN(c1cccc(-c2sc(C(=O)O)c(OCC(=O)O)c2Cl)c1)C1CCN(S(=O)(=O)Cc2cccc(NC(=O)CCn3cc(CNc4cccc5c4C(=O)N(C4CCC(=O)NC4=O)C5=O)nn3)c2)CC1` (stereo not drawn) [Example 17, 3-(carboxymethoxy)-4-chloro-5-(3-((1-((3-(3-(4-(((2-(2,6-dioxopiperidin-3-yl)-1,3-dioxoisoindolin-4-yl)amino)methyl)-1H-1,2,3-triazol-1-yl)propanamido)benzyl)sulfonyl)piperidin-4-yl)(methyl)amino)phenyl)thiophene-2-carboxylic acid], the DC50 in assay [1] and in assay [2] was at least 1000 nM each time.

Regarding `CC1(C)C[C@@H](Nc2cccc(-c3sc(C(=O)O)c(OCC(=O)O)c3Cl)c2)CCN1S(=O)(=O)Cc1cccc(NC(=O)N2CCC(Oc3ccc4c(c3)CN(C3CCC(=O)NC3=O)C4=O)CC2)c1` (stereo partly drawn) [Example 76], the half-maximal degradation concentration (DC50) in assay [1] was 200 to 1000 nM; in assay [2], at least 1000 nM.

Take `Cn1c(=O)n(C2CCC(=O)NC2=O)c2ccc(C3CCN(C(=O)Nc4cccc(CS(=O)(=O)N5CCC(Nc6cccc(-c7sc(C(=O)O)c(OCC(=O)O)c7Cl)c6)CC5(C)C)c4F)CC3)cc21` (stereo not drawn) [Example 115, 3-(carboxymethoxy)-4-chloro-5-[3-[[1-[[3-[[4-[1-(2,6-dioxo-3-piperidyl)-3-methyl-2-oxo-benzimidazol-5-yl]piperidine-1-carbonyl]amino]-2-fluoro-phenyl]methylsulfonyl]-2,2-dimethyl-4-piperidyl]amino]phenyl]thiophene-2-carboxylic acid]: the results for the DC50 in assay [1] and in assay [2] were 50 to 200 nM and 200 to 1000 nM, respectively.

In the case of `CC1(C)C[C@@H](Nc2cccc(-c3sc(C(=O)O)c(OCC(=O)O)c3Cl)c2)CCN1S(=O)(=O)Cc1cccc(NC(=O)OC2CN(C(=O)CNc3cccc4c3CN(C3CCC(=O)NC3=O)C4=O)C2)c1` (stereo partly drawn) [Example 96, 3-(carboxymethoxy)-4-chloro-5-[3-[[(4S)-1-[[3-[[1-[2-[[2-(2,6-dioxo-3-piperidyl)-1-oxo-isoindolin-4-yl]amino]acetyl]azetidin-3-yl]oxycarbonylamino]phenyl]methylsulfonyl]-2,2-dimethyl-4-piperidyl]amino]phenyl]thiophene-2-carboxylic acid], the figures for the DC50 in assay [1] and in assay [2] were 50 to 200 nM and 200 to 1000 nM, respectively.

For `Cn1c(=O)n(C2CCC(=O)NC2=O)c2ccc(C3CCN(C(=O)Nc4cccc(CS(=O)(=O)N5CCC(Nc6cccc(-c7sc(C(=O)O)c(OCC(=O)O)c7Cl)c6)CC5)c4)CC3)cc21` (stereo not drawn) [Example 51, 3-(carboxymethoxy)-4-chloro-5-[3-[[1-[[3-[[4-[1-(2,6-dioxo-3-piperidyl)-3-methyl-2-oxo-benzimidazol-5-yl]piperidine-1-carbonyl]amino]phenyl]methylsulfonyl]-4-piperidyl]amino]phenyl]thiophene-2-carboxylic acid], the DC50 in assay [1] and in assay [2] was 50 to 200 nM each time.

Consider `CC1(C)C[C@@H](Nc2cccc(-c3sc(C(=O)O)c(OCC(=O)O)c3Cl)c2)CCN1S(=O)(=O)Cc1cccc(NC(=O)C2CCN(C(=O)CNc3ccc4c(c3)C(=O)N(C3CCC(=O)NC3=O)C4=O)CC2)c1` (stereo partly drawn) [Example 43, 3-(carboxymethoxy)-4-chloro-5-[3-[[(4S)-1-[[3-[[1-[2-[[2-(2,6-dioxo-3-piperidyl)-1,3-dioxo-isoindolin-5-yl]amino]acetyl]piperidine-4-carbonyl]amino]phenyl]methylsulfonyl]-2,2-dimethyl-4-piperidyl]amino]phenyl]thiophene-2-carboxylic acid], for which the DC50 was 50 to 200 nM in assay [1] and at least 1000 nM in assay [2].

In the case of `CC(C)n1c(=O)n(C2CCC(=O)NC2=O)c2ccc(C3CCN(C(=O)Nc4cccc(CS(=O)(=O)N5CC[C@H](Nc6cccc(-c7sc(C(=O)O)c(OCC(=O)O)c7Cl)c6)CC5(C)C)c4)CC3)cc21` (stereo partly drawn) [Example 87, 3-(carboxymethoxy)-4-chloro-5-[3-[[(4S)-1-[[3-[[4-[1-(2,6-dioxo-3-piperidyl)-3-isopropyl-2-oxo-benzimidazol-5-yl]piperidine-1-carbonyl]amino]phenyl]methylsulfonyl]-2,2-dimethyl-4-piperidyl]amino]phenyl]thiophene-2-carboxylic acid], the half-maximal degradation concentration (DC50) is 50 to 200 nM in assay [1]; 50 to 200 nM and < 50 nM in assay [2].

With `CC1(C)C[C@@H](Nc2cccc(-c3sc(C(=O)O)c(OCC(=O)O)c3Cl)c2)CCN1S(=O)(=O)Cc1cccc(NC(=O)CCCNC(=O)CNc2cccc3c2CN(C2CCC(=O)NC2=O)C3=O)c1` (stereo partly drawn) [Example 28, 3-(carboxymethoxy)-4-chloro-5-(3-(((4S)-1-((3-(4-(2-((2-(2,6-dioxopiperidin-3-yl)-1-oxoisoindolin-4-yl)amino)acetamido)butanamido)benzyl)sulfonyl)-2,2-dimethylpiperidin-4-yl)amino)phenyl)thiophene-2-carboxylic acid], the results for the 50% degradation concentration (DC50) in assay [1] and in assay [2] were 200 to 1000 nM and at least 1000 nM, respectively.
